Test results taken from patent publication US12144814B2, “Compositions containing paraxanthine and beta-hydroxybutyrate or precursor for increasing neurological and physiological performance” (priority 2023, dated 2024).

Columns and labels:
healthy young adults [1] = test: Berg-Washington Card Sorting Task Test; type: in vivo; conditions: 200 mg paraxanthine, 5 g BHB, 200 mg paraxanthine and 5 g BHB
Text: The Berg-Washington Card Sorting Task (BCST) test is a test routinely used in the field to evaluate cognitive flexibility. The BCST test focuses on basic cognitive flexibility or set-shifting between old vs. new rule changes. The test involves reasoning, learning, executive control, and attention shifting. It is particularly sensitive to the subject's inability to shift set. Cards are shown with different colors (e.g., red, green, yellow, blue), different designs (e.g., circle, triangle, star, plus sign) and different numbers of symbols (e.g., 1-4) on the computer screen. Participants are asked to sort the cards by matching colors and/or designs and/or number of symbols, where the instruction for how to sort the cards can change, at different times during the test. Number of correct responses and number of errors (particular perservative errors, where the participant incorrectly continues sorting the cards under an old instruction, after a new instruction is given) are recorded. When running each such tests, subjects are given either paraxanthine+BHB, paraxanthine alone, BHB alone, or a placebo. The dosage amounts are 200 mg paraxanthine and 5 g of BHB, 200 mg of paraxanthine alone, 5 g of BHB alone, or a placebo. The testing is conducted under double blind, placebo controlled conditions. […]

[2] = metabolite of caffeine, cited from earlier work
healthy young adults [3] = test: Go/No Go Attention and Inhibitory Control Test; type: in vivo; conditions: 200 mg paraxanthine; 5 g BHB; 200 mg paraxanthine and 5 g BHB; baseline and 1-6 hours after supplementation; FIG. 5
Text: Attention and inhibitory control can be measured using a Go/No Go Test, which is used to measure a participant's capacity for sustained attention and response control. The Go/No Go Test is routinely used in the field, and will be familiar to those of skill in the art. In the Go/No Go Test, participants watch a 2×2 array of squares, and then there is a successive presentation of letters (e.g., either P or R) and the participant responds to a target letter by pressing the corresponding button on a keyboard. The single letter (P or R) is presented in one of the 4 squares for 500 milliseconds, with 1500 milliseconds between subsequent stimuli. For the P-Go condition, participants are asked to press the P key in response to the letter P, and abstain from responding to the letter R. For the R-reversal condition, the participants are asked to respond to the letter R, and abstain when seeing the letter P. Mean response time, as well as percentage of correct answers are recorded. When running each such tests, subjects are given either paraxanthine+BHB, paraxanthine alone, BHB alone, or a placebo. The dosage amounts are 200 mg paraxanthine and 5 g of BHB, 200 mg of paraxanthine alone, 5 g of BHB alone, or a placebo. The testing is conducted under double blind, placebo controlled conditions. […]

[4] = Age-related cognitive decline study; type: in vivo
[5] = Clinical Resting Energy Expenditure study; type: in vivo; conditions: paraxanthine 100 mg or 300 mg; BHB 5 g; paraxanthine 100 mg or 300 mg with BHB 5 g; 180-day period
Protocol: FIGS. 16A-16B show expected results of a clinical Resting Energy Expenditure study, where participants are supplemented with paraxanthine alone (100 mg or 300 mg), BHB alone (5 g), or paraxanthine (100 mg or 300 mg) in combination with BHB (5 g) over a 180-day period. […] Because of the presence of the BHB ketone body component, such increased metabolic rate is also more likely to occur within the context of ketogenic state, where fat is principally used as the caloric energy source for the increased resting metabolic rate.

[6] = cited from earlier work
adenosine A1 receptors = target: T1, adenosine A1 receptors (Homo sapiens, UniProt P30542); conditions: compared with caffeine; cited from earlier work
T1 sequence (P30542 1-326): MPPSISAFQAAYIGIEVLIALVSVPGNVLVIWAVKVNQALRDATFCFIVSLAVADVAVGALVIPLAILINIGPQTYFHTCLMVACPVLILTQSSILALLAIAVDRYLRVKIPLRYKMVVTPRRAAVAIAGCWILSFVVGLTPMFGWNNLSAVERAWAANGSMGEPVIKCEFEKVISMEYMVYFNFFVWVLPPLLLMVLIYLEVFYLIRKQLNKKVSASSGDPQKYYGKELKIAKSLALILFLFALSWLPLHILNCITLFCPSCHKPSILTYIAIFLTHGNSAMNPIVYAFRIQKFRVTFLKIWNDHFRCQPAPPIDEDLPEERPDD

[7] = Clinical Stroop Test study; type: in vivo; conditions: paraxanthine 200 mg; BHB 5 g; paraxanthine 200 mg with BHB 5 g; 6-week period; FIGS. 15A-15C
Text: The Stroop effect refers to the delay in reaction time between congruent and incongruent stimuli. […] When paired with paraxanthine, the combination provides a synergistic improvement in mental acuity.

For `Cn1c(=O)[nH]c2ncn(C)c2c1=O` [paraxanthine, 1,7-dimethylxanthine], the “Berg-Washington Card Sorting Task Test number of correct responses” value (healthy young adults [1]; FIG. 7) is listed as “significant increase in the number of correct responses”, the “Berg-Washington Card Sorting Task Test number of errors” value (healthy young adults [1]; FIG. 8) is listed as “reduction in the number of errors” and the “share of the methylxanthine metabolic by-products” value ([2]; FIG. 2) is listed as “about 84%”. The “share of caffeine ingested” value [2] was 70-72%, the “Go/No Go Test average response time” value (healthy young adults [3]) was “faster response times” and the Acetylcholine ([4]; PX 25 mg) was 61.04 U/mL. It also gave a BDNF ([4]; PX 25 mg) of 828.05 pg/mL, a Catalase ([4]; PX 25 mg) of 30.24 U/mL and a Dopamine ([4]; PX 25 mg) of 493.65 ng/L. The “Escape Latency” value ([4]; PX 25 mg) was 49.9 s, the Glutathione ([4]; PX 25 mg) was 24.04 µg/mL and the Acetylcholine ([4]; PX 100 mg) was 69.27 U/mL. The BDNF ([4]; PX 100 mg) was 939.15 pg/mL, the Catalase ([4]; PX 100 mg) was 38.91 U/mL and the Dopamine ([4]; PX 100 mg) was 596.32 ng/L. The “Escape Latency” value ([4]; PX 100 mg) was 21.31 s, the Glutathione ([4]; PX 100 mg) was 34.41 µg/mL and the resting energy expenditure [5] was “some increase in resting energy expenditure”. For the same compound, the half-life ([6]; elimination half-life, FIG. 3) was 3.1 h, the Total plasma clearance ([6]; in vivo) was 2.20 mL/min/kg and the “binding potency for adenosine A1 receptors” value (adenosine A1 receptors) was “higher binding potencies”. For the same compound, the “Stroop test number of correct answers” value [7] was “some improvement” and the “Stroop test reaction speed” value [7] was “some improvement”.
